One test addresses T1, COX-1 (Homo sapiens, UniProt P23219).
T1 construct: host or cells: U-937 human lymphoma cells
The test is described as follows: Assay for the COX-1 inhibitory activity using U-937 (PGE2 inhibition). The test is classed as cell-based. To be noted: 1 μM test compound; U-937 human lymphoma cells; PGE2 after arachidonic acid; read-out: Cyclooxygenase (COX) Inhibition (%) COX-1 (1 μM). The method, then:
The collected cells were diluted with HBSS (×1, Hank's balanced salt solution) to a concentration of 1×10^6 cells/ml. 1 ml of the dilute cell solution was placed into each well of 12-well plates. 5 μl of 1 μM solution of a test compound in DMSO and 5 μl of DMSO as a control were added to the wells. The wells were incubated in CO2 incubator at 37° C. for 15 minutes. Separately, 10 mM stock solution of arachidonic acid in ethanol was diluted ten times in ethanol to prepare 1 mM solution of arachidonic acid. Arachidonic acid acts as a substrate. 10 μl of the 1 mM solution of arachidonic acid was added to each well and incubated at CO2 incubator at 37° C. for 30 minutes. The cell solution of each well was placed in a centrifuge test tube and centrifuged at 10,000 rpm at 4° C. for 5 minutes. The concentration of PGE2 in the collected cells and the supernatant was quantified by means of a monoclonal kit (Cayman Chemicals). The percentages of PGE2 inhibition in a group of the test compound-treated cells in relation to a group of the DMSO-treated cells were calculated. Based on the calculated values, the COX-1 inhibitory activities were evaluated.
(§1) The percentages of the COX inhibition were calculated according to the following equation: % Inhibition=(concentration of PGE2 in test compound-untreated sample−concentration of PGE2 in test compound-treated sample)/(concentration of PGE2 in test compound-untreated sample)×100

A further test has as its target T2, COX-2 (Mus musculus, UniProt Q05769).
T2 construct: host or cells: RAW 264.7 cells, aspirin-pretreated, then induced with interferon gamma and LPS
T2 sequence (Q05769 18-604): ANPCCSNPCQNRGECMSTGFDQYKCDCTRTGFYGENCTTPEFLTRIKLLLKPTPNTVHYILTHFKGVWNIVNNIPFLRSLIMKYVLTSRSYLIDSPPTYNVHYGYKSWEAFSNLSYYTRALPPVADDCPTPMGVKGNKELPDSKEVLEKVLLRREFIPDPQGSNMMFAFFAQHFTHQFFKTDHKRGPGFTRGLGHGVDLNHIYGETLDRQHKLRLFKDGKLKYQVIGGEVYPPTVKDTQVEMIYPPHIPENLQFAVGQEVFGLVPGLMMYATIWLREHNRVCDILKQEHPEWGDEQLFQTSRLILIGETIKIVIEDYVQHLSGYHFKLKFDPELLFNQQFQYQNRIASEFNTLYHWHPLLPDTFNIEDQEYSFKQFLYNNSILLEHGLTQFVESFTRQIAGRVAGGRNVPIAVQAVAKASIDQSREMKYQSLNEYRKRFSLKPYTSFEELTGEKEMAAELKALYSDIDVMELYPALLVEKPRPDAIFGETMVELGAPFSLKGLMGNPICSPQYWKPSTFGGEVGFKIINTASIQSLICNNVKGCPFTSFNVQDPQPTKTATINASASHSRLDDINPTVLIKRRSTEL
The test is described as follows: Assay for the COX-2 inhibitory activity using RAW 264.7 cell line (PGE2 inhibition). The test is classed as cell-based. To be noted: RAW264.7, 10 nM test compound, RAW 264.7 cells, interferon γ and LPS, 18 hours, read-out: Cyclooxygenase (COX) Inhibition (%) COX-2 (10 nM). As for the experimental part: Each well was treated with 250 μM of aspirin and incubated at 37° C. for 2 hours. After the culture media were replaced with new culture media, the new culture media were treated with a test compound (10 nM) and incubated for 30 minutes. Then, each well was treated with interferon γ (100 units/ml) and lipopolysaccharide (LPS, 100 ng/ml) and incubated for 18 hours. The culture media were transferred to other test tubes. The concentration of PGE2 was quantified by means of the EIA kit (Cayman Chemicals).
as §1

Structures are written as SMILES.

T1 sequence (P23219 24-599): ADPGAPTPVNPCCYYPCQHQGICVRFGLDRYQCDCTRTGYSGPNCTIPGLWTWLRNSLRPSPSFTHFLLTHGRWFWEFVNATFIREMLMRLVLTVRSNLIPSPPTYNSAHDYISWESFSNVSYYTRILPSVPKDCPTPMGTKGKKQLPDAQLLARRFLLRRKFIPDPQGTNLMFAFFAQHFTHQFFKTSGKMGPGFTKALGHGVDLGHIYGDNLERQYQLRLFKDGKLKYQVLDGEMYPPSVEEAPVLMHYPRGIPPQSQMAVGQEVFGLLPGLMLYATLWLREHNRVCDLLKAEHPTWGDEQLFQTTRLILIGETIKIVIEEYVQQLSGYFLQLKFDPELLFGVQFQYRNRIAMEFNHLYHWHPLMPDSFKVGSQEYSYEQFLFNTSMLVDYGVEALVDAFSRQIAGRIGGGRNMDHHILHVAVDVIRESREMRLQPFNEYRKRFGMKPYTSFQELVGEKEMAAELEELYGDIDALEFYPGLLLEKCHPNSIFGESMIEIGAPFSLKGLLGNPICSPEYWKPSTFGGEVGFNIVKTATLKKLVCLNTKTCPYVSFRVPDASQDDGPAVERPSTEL

The inhibition is how much of the control response was suppressed. Regarding `COc1ccc(-c2nc(O)nn2-c2ccc(S(N)(=O)=O)cc2)cc1` [Example 16, 4-[3-hydroxy-5-(4-methoxyphenyl)-1,2,4-triazole-1-yl]-benzenesulfonamide], the inhibition at 1 µM at COX-1 worked out at 35.5%. For the same molecule, the inhibition at 0.01 µM at COX-2 came to 11.2%.
Turning to `CCOc1ccc(-c2nc(O)nn2-c2ccc(S(N)(=O)=O)cc2)cc1` [Example 17, 4-[3-hydroxy-5-(4-ethoxyphenyl)-1,2,4-triazole-1-yl]-benzenesulfonamide], the inhibition at 1 µM on COX-1 amounted to 48.8%. For the same molecule, the inhibition at 0.01 µM on COX-2 is 10.5%.
On to `NS(=O)(=O)c1ccc(-n2nc(O)nc2-c2ccc(F)cc2)cc1` [Example 18, 4-[3-hydroxy-5-(4-fluorophenyl)-1,2,4-triazole-1-yl]-benzenesulfonamide], for which the inhibition at 1 µM at COX-1 is 19.5%. For the same molecule, at COX-2, the inhibition at 0.01 µM was determined as 6.7%.
In the case of `NS(=O)(=O)c1ccc(-n2nc(O)nc2-c2ccc(Br)cc2)cc1` [Example 19, 4-[3-hydroxy-5-(4-bromophenyl)-1,2,4-triazole-1-yl]-benzenesulfonamide], at COX-1, the inhibition at 1 µM was 37.4%. Moreover, the inhibition at 0.01 µM at COX-2 was determined as 12.3%.
Consider `COc1ccc(-c2nc(O)nn2-c2ccc(S(N)(=O)=O)cc2)cc1F` [Example 20, 4-[3-hydroxy-5-(3-fluoro-4-methoxyphenyl)-1,2,4-triazole-1-yl]-benzenesulfonamide], for which the inhibition at 1 µM at COX-1 is 26.4%. The inhibition at 0.01 µM on COX-2 turned out to be 11%.
On the same counts, the results for `NS(=O)(=O)c1ccc(-n2nc(S)nc2-c2ccccc2)cc1` [Example 21, 4-(3-mercapto-5-phenyl-1,2,4-triazole-1-yl)-benzenesulfonamide] are 25.7% and 12.6%.
Consider `CS(=O)(=O)c1ccc(-n2nc(O)nc2-c2ccccc2)cc1` [Example 22, 1-(4-methanesulfonylphenyl)-5-phenyl-1H-1,2,4-triazole-3-ol], for which, on COX-1, the inhibition at 1 µM was found to be 11.1%. Moreover, at COX-2, the inhibition at 0.01 µM is 36.4%.
Consider `COc1ccc(-c2nc(O)nn2-c2ccc(S(C)(=O)=O)cc2)cc1` [Example 23, 1-(4-methanesulfonylphenyl)-5-(4-methoxyphenyl)-1H-1,2,4-triazole-3-ol], for which the inhibition at 1 µM at COX-1 was 13.2%. Also, at COX-2, the inhibition at 0.01 µM worked out at 35.1%.
For the molecule `COc1ccc(-c2nc(OC)nn2-c2ccc(S(N)(=O)=O)cc2)cc1` [Example 24, 4-[3-methoxy-5-(4-methoxyphenyl)-1,2,4-triazole-1-yl]-benzenesulfonamide], the inhibition at 1 µM on COX-1 was 16.4%. Also, at COX-2, the inhibition at 0.01 µM was 31.2%.
As to `COc1nc(-c2ccccc2)n(-c2ccc(S(N)(=O)=O)cc2)n1` [Example 25, 4-(3-methoxy-5-phenyl-1,2,4-triazole-1-yl)-benzenesulfonamide], on COX-1, the inhibition at 1 µM is 23.2%. Further, on COX-2, the inhibition at 0.01 µM came to 27.8%.
`COc1nc(-c2ccc(F)cc2)n(-c2ccc(S(N)(=O)=O)cc2)n1` [Example 26, 4-[3-methoxy-5-(4-fluorophenyl)-1,2,4-triazole-1-yl]-benzenesulfonamide]: the inhibition at 1 µM at COX-1 was 44.5%. The inhibition at 0.01 µM on COX-2 worked out at 13.5%.
Take `COc1nc(-c2ccc(Br)cc2)n(-c2ccc(S(N)(=O)=O)cc2)n1` [Example 27, 4-[3-methoxy-5-(4-bromophenyl)-1,2,4-triazole-1-yl]-benzenesulfonamide]: at COX-1, the inhibition at 1 µM is 11.2%. Also, the inhibition at 0.01 µM on COX-2 worked out at 11.5%.
With `COc1nc(-c2ccc(OC)c(F)c2)n(-c2ccc(S(N)(=O)=O)cc2)n1` [Example 28, 4-[3-methoxy-5-(3-fluoro-4-methoxyphenyl)-1,2,4-triazole-1-yl]-benzenesulfonamide], at COX-1, the inhibition at 1 µM came out at 21.2%. On COX-2, the inhibition at 0.01 µM came to 10.5%.
On the same counts, the results for `CSc1nc(-c2ccccc2)n(-c2ccc(S(N)(=O)=O)cc2)n1` [Example 29, 4-(3-methylthio-5-phenyl-1,2,4-triazole-1-yl)-benzenesulfonamide] are 17.7% and 11.1%.
Take `CCOc1nc(-c2ccc(OC)cc2)n(-c2ccc(S(N)(=O)=O)cc2)n1` [Example 30, 4-[3-ethoxy-5-(4-methoxyphenyl)-1,2,4-triazole-1-yl]-benzenesulfonamide]: on COX-1, the inhibition at 1 µM is 16.4%. The inhibition at 0.01 µM at COX-2 was 13.2%.
As for `CCOc1nc(-c2ccccc2)n(-c2ccc(S(N)(=O)=O)cc2)n1` [Example 31, 4-(3-ethoxy-5-phenyl-1,2,4-triazole-1-yl)-benzenesulfonamide], on COX-1, the inhibition at 1 µM stood at 15.5%. The inhibition at 0.01 µM on COX-2 worked out at 16.4%.
As to `CCOc1nc(-c2ccc(F)cc2)n(-c2ccc(S(N)(=O)=O)cc2)n1` [Example 32, 4-[3-ethoxy-5-(4-fluorophenyl)-1,2,4-triazole-1-yl]-benzenesulfonamide], the inhibition at 1 µM on COX-1 stood at 21.4%. Besides, the inhibition at 0.01 µM at COX-2 turned out to be 11.5%.
With `CCOc1nc(-c2ccc(OC)c(F)c2)n(-c2ccc(S(N)(=O)=O)cc2)n1` [Example 33, 4-[3-ethoxy-5-(3-fluoro-4-methoxyphenyl)-1,2,4-triazole-1-yl]-benzenesulfonamide], on COX-1, the inhibition at 1 µM was 23.7%. The inhibition at 0.01 µM on COX-2 came to 10.5%.
Take `CCSc1nc(-c2ccccc2)n(-c2ccc(S(N)(=O)=O)cc2)n1` [Example 34, 4-(3-ethylthio-5-phenyl-1,2,4-triazole-1-yl)-benzenesulfonamide]: the inhibition at 1 µM on COX-1 worked out at 31.2%. For the same molecule, on COX-2, the inhibition at 0.01 µM is 9.5%.
With `CCCOc1nc(-c2ccc(OC)cc2)n(-c2ccc(S(N)(=O)=O)cc2)n1` [Example 35, 4-[3-propoxy-5-(4-methoxyphenyl)-1,2,4-triazole-1-yl]-benzenesulfonamide], the inhibition at 1 µM at COX-1 worked out at 23.4%. Also, the inhibition at 0.01 µM on COX-2 was determined as 16.1%.
On the same counts, the results for `CCCOc1nc(-c2ccc(F)cc2)n(-c2ccc(S(N)(=O)=O)cc2)n1` [Example 36, 4-[3-propoxy-5-(4-fluorophenyl)-1,2,4-triazole-1-yl]-benzenesulfonamide] are 27% and 17.2%.
On the same counts, the results for `COc1ccc(-c2nc(OC3CCCC3)nn2-c2ccc(S(N)(=O)=O)cc2)cc1` [Example 37, 4-[3-cyclopentyloxy-5-(4-methoxyphenyl)-1,2,4-triazole-1-yl]-benzenesulfonamide] are 12% and 22.3%.
For the molecule `NS(=O)(=O)c1ccc(-n2nc(OC3CCCC3)nc2-c2ccc(F)cc2)cc1` [Example 38, 4-[3-cyclopentyloxy-5-(4-fluorophenyl)-1,2,4-triazole-1-yl]-benzenesulfonamide], the inhibition at 1 µM on COX-1 was 17.4%. The inhibition at 0.01 µM at COX-2 came to 33.1%.
On the same counts, the results for `COc1ccc(-c2nc(OC3CCCCC3)nn2-c2ccc(S(N)(=O)=O)cc2)cc1` [Example 39, 4-[3-cyclohexyloxy-5-(4-methoxyphenyl)-1,2,4-triazole-1-yl]-benzenesulfonamide] are 15.5% and 20.7%.
As for `NS(=O)(=O)c1ccc(-n2nc(OC3CCCCC3)nc2-c2ccc(F)cc2)cc1` [Example 40, 4-[3-cyclohexyloxy-5-(4-fluorophenyl)-1,2,4-triazole-1-yl]-benzenesulfonamide], the inhibition at 1 µM on COX-1 came to 16.2%. The inhibition at 0.01 µM at COX-2 was 16.2%.
Take `COc1ccc(-c2nc(OCC#N)nn2-c2ccc(S(N)(=O)=O)cc2)cc1` [Example 41, 4-[3-cyanomethoxy-5-(4-methoxyphenyl)-1,2,4-triazole-1-yl]-benzenesulfonamide]: the inhibition at 1 µM on COX-1 was 27.7%. Besides, the inhibition at 0.01 µM at COX-2 is 15.5%.

The values are drawn from US7473700B2, “1,2,4-triazole derivatives, processes for the preparation thereof, and pharmaceutical compositions containing the same” (CJ Corporation, priority 2002, dated 2009).
